Measured values from PubChem BioAssay (NCI).
Where “and” joins values, the source holds several entries; their conditions need not be identical. Equal values may be shown once.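 Five compound concentrations were applied to cells in 96-well plates for 48 hours; endpoints were derived by simple linear interpolation of the resulting dose-response curve. The concentration for 50% growth inhibition is given as GI50. TGI: concentration producing complete growth inhibition.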

How the values were obtained:
Test in all cases: NCI tumour cell line growth inhibition, 48 h
[1] = tested on: MCF7 breast
[2] = tested on: NCI/ADR-RES ovarian
[3] = tested on: DLD-1 colon
[4] = tested on: DMS 114 small cell lung
[5] = tested on: HOP-18 NSCLC
[6] = tested on: KM20L2 colon
[7] = tested on: LXFL 529 NSCLC
[8] = tested on: RXF-631 renal
[9] = tested on: MDA-N

N#Cc1c(O)c2c(c(O)c1C#N)C(=O)c1ccccc1C2=O
GI50 [1]: 1.46 µM
TGI [1]: 3.76 µM
GI50 [2]: 2.12 µM
TGI [2]: 7.25 µM

CCOC(=O)c1cc(-c2ccc([N+](=O)[O-])cc2)n(-c2ccc(C(=O)O)c(O)c2)c1C
GI50 [1]: 3.58 µM
TGI [1]: 13.7 µM
GI50 [2]: 3.8 µM
TGI [2]: 38.6 µM

O=C(Cc1ccc(/C=C/C(=O)c2ncc[nH]2)cc1)Nc1ccc(Cl)cc1
GI50 [1]: 0.741 µM
TGI [1]: 4.73 µM
GI50 [2]: 5.02 µM
TGI [2]: > 25 µM

O=C(O)c1cc(S(=O)(=O)N=NC=C2c3ccccc3N(O)c3ccccc32)ccc1O
TGI [3]: 64.6 µM
TGI [4]: 50.8 µM
TGI [5]: 85.4 µM
TGI [6]: 63.6 µM
TGI [7]: 28.6 µM

COc1cc2c(c(OC)c1OC)-c1ccc(NCc3ccccc3)c(=O)cc1[C@@H](NC(C)=O)CC2
GI50 [1]: 0.337 µM
TGI [1]: 19.7 µM
GI50 [2]: 18.7 µM
TGI [2]: > 100 µM

O=C1/C(=C/c2ccccc2)CN(C(=O)Oc2ccc(Cl)cc2)C/C1=C\c1ccccc1
TGI [3]: 3.61 µM
TGI [4]: 3.68 µM
TGI [5]: 36.6 µM
TGI [6]: 8.28 µM
TGI [7]: 3.64 µM

O=C(N/N=C/c1cccc(O)c1O)N/N=C/c1cccc(O)c1O
TGI [4]: > 100 µM
TGI [5]: 67.1 µM
TGI [6]: 95.2 µM
TGI [7]: > 100 µM

Cc1c(C(=O)/C=C/c2cccc3ccccc23)[n+](=O)c2ccccc2n1[O-]
TGI [3]: 23.3 µM
TGI [4]: 16.8 µM
TGI [5]: 28.6 µM
TGI [6]: 27.9 µM
TGI [7]: 20.6 µM
TGI [8]: 56.4 µM

Cn1c(-c2nonc2N)nc2cnccc21
GI50 [1]: > 25 µM
TGI [1]: > 25 µM
GI50 [2]: > 25 µM
TGI [2]: > 25 µM

O=C(O)Cc1c[nH]c2ccc(F)cc12
TGI [1]: > 100 µM
TGI [9]: > 100 µM
TGI [2]: > 100 µM

O=c1c(Cl)c(Cl)cnn1-c1ccccc1
TGI [3]: 2.84 µM and 5.22 µM
TGI [4]: 5.76 µM and 3.09 µM
TGI [5]: 22.8 µM and 21.9 µM
GI50 [6]: 0.655 µM and 6.44 µM
TGI [6]: 24.5 µM and 15.7 µM
TGI [7]: 11.9 µM and 3.13 µM
TGI [1]: 18.9 µM and 13.6 µM
TGI [9]: 6.77 µM and 3.65 µM
TGI [2]: 3.97 µM

COc1cccc(-c2nn(-c3ccccc3)cc2-c2ccnc(NCCCNS(=O)(=O)c3cccc(F)c3)c2)c1
GI50 [1]: 3.21 µM
TGI [1]: > 100 µM
GI50 [2]: 3.05 µM
TGI [2]: > 100 µM

COc1cc2c(NCCCCCCO[N+](=O)[O-])ncnc2c(OC)c1OC
TGI [1]: 71.4 µM
TGI [9]: 56.4 µM
TGI [2]: 51.3 µM

C#CC(C)(C)Oc1cc(O)c2c(=O)c3ccccc3n(C)c2c1
TGI [4]: > 100 µM
TGI [5]: > 100 µM
TGI [6]: > 100 µM
TGI [7]: > 100 µM
TGI [8]: > 100 µM

CCN1CCN(c2nc(NCCNc3ccnc4cc(Cl)ccc34)c3ccccc3n2)CC1
GI50 [1]: 1.11 µM
TGI [1]: 11 µM
GI50 [2]: 4.57 µM
TGI [2]: 25.8 µM

CC(=O)/C=C/c1cccc(N=S)c1
TGI [3]: 16.5 µM
TGI [4]: > 66.1 µM
TGI [5]: > 100 µM
TGI [6]: 37 µM
TGI [7]: 32.9 µM
TGI [8]: > 100 µM

O=S(=O)(O)C(O)/C=C/c1ccccc1 (stereo not drawn)
TGI [3]: > 100 µM
TGI [4]: > 100 µM
TGI [5]: > 100 µM
TGI [6]: > 100 µM
TGI [7]: > 100 µM

Cc1cc(C)nc(NS(=O)(=O)c2ccc(NC(=O)c3cccc4c(=O)c5ccccc5[nH]c34)cc2)n1
TGI [3]: 45.6 µM
TGI [4]: 35.2 µM
TGI [5]: 47.2 µM
TGI [6]: 40.5 µM
TGI [7]: > 100 µM
TGI [8]: > 100 µM

OC(c1cccc(C(F)(F)F)c1)c1cnccc1NC1CCCCCC1 (stereo not drawn)
GI50 [1]: 1.66 µM
TGI [1]: 3.51 µM
GI50 [2]: 1.85 µM
TGI [2]: 4.18 µM

COc1cc2c(cc1O)[C@H](Cc1ccc(Oc3cc(C[C@H]4c5cc(OC)c(OC)cc5CCN4C)ccc3OC)cc1)NCC2
TGI [4]: 40.5 µM
TGI [5]: 32.7 µM
TGI [6]: 22.7 µM
TGI [7]: 28.2 µM
TGI [8]: 32 µM

COC(=O)C(CC(=O)c1cc2c(cc1I)OCO2)Cc1cc(OC)c(OC)c(OC)c1I (stereo not drawn)
TGI [3]: > 100 µM
TGI [4]: > 100 µM
TGI [5]: > 100 µM
TGI [6]: > 100 µM
TGI [7]: > 100 µM

CN1CCN(Cc2ccc(NC(=O)c3cncc(C#Cc4cnc(N)c5ccccc45)c3)cc2C(F)(F)F)CC1
GI50 [1]: 0.371 µM
TGI [1]: 0.892 µM
GI50 [2]: 0.556 µM
TGI [2]: 1.21 µM

CC1=C[C@@H]2Cc3occc3C(C)(C)[C@@H]2CC1
TGI [3]: 32.8 µM
TGI [4]: 35.9 µM
TGI [5]: 54 µM
TGI [6]: 33.8 µM
TGI [7]: > 100 µM
TGI [8]: 38.5 µM

C[C@@H]1Cc2c([nH]c3ccccc23)[C@@H](c2c(F)cc(/C=C/C(=O)O)cc2F)N1CC(C)(C)F
TGI [1]: 25.6 µM
GI50 [2]: 14.7 µM
TGI [2]: 36.5 µM

O=C1CSC(N2CCN(c3cccc(Cl)c3)CC2)=N1
GI50 [1]: > 100 µM
TGI [1]: > 100 µM
GI50 [2]: > 100 µM
TGI [2]: > 100 µM

CCOc1ccc2nc(NC(=O)/C(CC(=O)CC(C3=C(O)c4ccccc4CC3=O)c3ccccc3)=N\O)sc2c1 (stereo not drawn)
TGI [1]: > 100 µM
TGI [9]: > 100 µM
TGI [2]: > 100 µM

O=c1[nH]c(=O)n(C2CC(O)C(CO)O2)cc1C#Cc1c(F)c(F)c(F)c(F)c1F (stereo not drawn)
TGI [3]: > 100 µM
TGI [4]: > 100 µM
TGI [6]: > 100 µM
TGI [7]: > 100 µM

CC1=C2[C@@H](CC1)[C@]1(C)O[C@@](C(C)C)(C[C@H]1OC(=O)[C@H](C)O)[C@H]2OC(=O)/C=C/c1ccccc1
GI50 [1]: 8.15 µM
TGI [1]: 23.5 µM
GI50 [2]: 0.428 µM
TGI [2]: 16 µM

Clc1ccc(Cc2nc3cc4ccccc4cc3[nH]2)cc1
GI50 [1]: 17.1 µM
TGI [1]: > 100 µM
GI50 [2]: 22.9 µM
TGI [2]: > 100 µM

COc1ccc(/C=C(/C(=O)O)c2cc(OC)c(OC)c(OC)c2)cc1
TGI [3]: > 100 µM
TGI [4]: > 100 µM
TGI [6]: 98.2 µM
TGI [7]: > 100 µM
TGI [8]: > 100 µM

CN=C1NC(=O)/C(=C/c2ccc3ncccc3c2)S1
GI50 [1]: 6.21 µM
TGI [1]: > 25 µM
GI50 [2]: 13.9 µM
TGI [2]: > 25 µM

Cn1cc(C2=C(c3ccc(OC[C@@H](O)CO)cc3)C(=O)NC2=O)c2ccccc21
GI50 [1]: > 25 µM
TGI [1]: > 25 µM
GI50 [2]: > 25 µM
TGI [2]: > 25 µM

NNC(=O)c1cnn(-c2ccnc3c(C(F)(F)F)cccc23)c1N
GI50 [1]: > 100 µM
TGI [1]: > 100 µM
GI50 [2]: > 100 µM
TGI [2]: > 100 µM
